Source: the kinase profiling compilation of Christmann-Franck et al. (2016)

How the values were obtained:
Test in all cases: radiometric filter-binding kinase assay, Kinase HotSpot
Conditions in all cases: compound 0.5 µM; ATP 10 µM
AKT2 (human) = AKT2 (human) (UniProt P31751)
BLK (human) = BLK (human) (UniProt P51451)
BMX (human) = BMX (human) (UniProt P51813)
CDK4 CCND3 (human) = CDK4 CCND3 (human) (UniProt P30281+P11802)
CDK5 CDK5R1 p25 (human) = CDK5 CDK5R1 p25 (human) (UniProt Q00535+Q15078)
CDK7 CCNH MNAT1 (human) = CDK7 CCNH MNAT1 (human) (UniProt P50613+P51948+P51946)
CSNK1D (human) = CSNK1D (human) (UniProt P48730)
DCLK2 (human) = DCLK2 (human) (UniProt Q8N568)
DDR2 (human) = DDR2 (human) (UniProt Q16832)
DMPK (human) = DMPK (human) (UniProt Q09013)
EPHA7 (human) = EPHA7 (human) (UniProt Q15375)
EPHA8 (human) = EPHA8 (human) (UniProt P29322)
FGFR1 (human) = FGFR1 (human) (UniProt P11362)
FGFR3 (human) = FGFR3 (human) (UniProt P22607)
GRK4 (human) = GRK4 (human) (UniProt P32298)
GSG2 (human) = GSG2 (human) (UniProt Q8TF76)
HCK (human) = HCK (human) (UniProt P08631)
HIPK2 (human) = HIPK2 (human) (UniProt Q9H2X6)
IKBKE (human) = IKBKE (human) (UniProt Q14164)
INSRR (human) = INSRR (human) (UniProt P14616)
MAPK12 (human) = MAPK12 (human) (UniProt P53778)
MAPK13 (human) = MAPK13 (human) (UniProt O15264)
MARK4 (human) = MARK4 (human) (UniProt Q96L34)
MST4 (human) = MST4 (human) (UniProt Q9P289)
NEK7 (human) = NEK7 (human) (UniProt Q8TDX7)
PAK4 (human) = PAK4 (human) (UniProt O96013)
PKN2 (human) = PKN2 (human) (UniProt Q16513)
PLK1 (human) = PLK1 (human) (UniProt P53350)
PRKCB1 (human) = PRKCB1 (human) (UniProt P05771)
PRKCZ (human) = PRKCZ (human) (UniProt Q05513)
RPS6KA5 KD2 (human) = RPS6KA5 KD2 (human) (UniProt O75582)
RPS6KB2 (human) = RPS6KB2 (human) (UniProt Q9UBS0)
SGK2 (human) = SGK2 (human) (UniProt Q9HBY8)
SRC (human) = SRC (human) (UniProt P12931)
STK11 (human) = STK11 (human) (UniProt Q15831)
STK17A (human) = STK17A (human) (UniProt Q9UEE5)
TAOK1 (human) = TAOK1 (human) (UniProt Q7L7X3)
TGFBR2 (human) = TGFBR2 (human) (UniProt P37173)
WEE1 (human) = WEE1 (human) (UniProt P30291)
WNK2 (human) = WNK2 (human) (UniProt Q9Y3S1)
YES1 (human) = YES1 (human) (UniProt P07947)
ZAP70 (human) = ZAP70 (human) (UniProt P43403)

DDR2 (human), sequence (Q16832 whole entry, looked up): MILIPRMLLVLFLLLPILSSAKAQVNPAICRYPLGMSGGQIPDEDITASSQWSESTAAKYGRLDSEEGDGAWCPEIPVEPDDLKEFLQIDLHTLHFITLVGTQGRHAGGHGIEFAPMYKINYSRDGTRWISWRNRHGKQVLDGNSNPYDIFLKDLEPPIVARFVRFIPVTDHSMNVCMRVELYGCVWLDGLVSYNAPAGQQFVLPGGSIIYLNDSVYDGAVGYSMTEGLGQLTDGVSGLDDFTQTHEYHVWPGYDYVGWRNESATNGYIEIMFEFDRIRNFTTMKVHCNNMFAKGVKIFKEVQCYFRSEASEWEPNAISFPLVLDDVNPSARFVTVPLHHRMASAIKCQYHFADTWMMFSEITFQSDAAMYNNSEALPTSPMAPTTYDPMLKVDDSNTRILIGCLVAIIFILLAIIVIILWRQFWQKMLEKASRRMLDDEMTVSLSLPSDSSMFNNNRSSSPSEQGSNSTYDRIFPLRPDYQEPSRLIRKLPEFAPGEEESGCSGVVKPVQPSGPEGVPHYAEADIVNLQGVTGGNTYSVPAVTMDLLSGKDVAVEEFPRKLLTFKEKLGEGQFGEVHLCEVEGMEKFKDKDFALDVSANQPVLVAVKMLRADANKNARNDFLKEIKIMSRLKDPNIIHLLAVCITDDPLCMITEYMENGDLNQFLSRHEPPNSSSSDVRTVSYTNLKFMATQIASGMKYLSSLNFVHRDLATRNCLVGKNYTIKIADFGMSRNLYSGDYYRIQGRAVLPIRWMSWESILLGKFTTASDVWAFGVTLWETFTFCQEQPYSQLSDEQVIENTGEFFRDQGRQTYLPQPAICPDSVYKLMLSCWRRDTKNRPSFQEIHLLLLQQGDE
FGFR1 (human), sequence (P11362 whole entry, looked up): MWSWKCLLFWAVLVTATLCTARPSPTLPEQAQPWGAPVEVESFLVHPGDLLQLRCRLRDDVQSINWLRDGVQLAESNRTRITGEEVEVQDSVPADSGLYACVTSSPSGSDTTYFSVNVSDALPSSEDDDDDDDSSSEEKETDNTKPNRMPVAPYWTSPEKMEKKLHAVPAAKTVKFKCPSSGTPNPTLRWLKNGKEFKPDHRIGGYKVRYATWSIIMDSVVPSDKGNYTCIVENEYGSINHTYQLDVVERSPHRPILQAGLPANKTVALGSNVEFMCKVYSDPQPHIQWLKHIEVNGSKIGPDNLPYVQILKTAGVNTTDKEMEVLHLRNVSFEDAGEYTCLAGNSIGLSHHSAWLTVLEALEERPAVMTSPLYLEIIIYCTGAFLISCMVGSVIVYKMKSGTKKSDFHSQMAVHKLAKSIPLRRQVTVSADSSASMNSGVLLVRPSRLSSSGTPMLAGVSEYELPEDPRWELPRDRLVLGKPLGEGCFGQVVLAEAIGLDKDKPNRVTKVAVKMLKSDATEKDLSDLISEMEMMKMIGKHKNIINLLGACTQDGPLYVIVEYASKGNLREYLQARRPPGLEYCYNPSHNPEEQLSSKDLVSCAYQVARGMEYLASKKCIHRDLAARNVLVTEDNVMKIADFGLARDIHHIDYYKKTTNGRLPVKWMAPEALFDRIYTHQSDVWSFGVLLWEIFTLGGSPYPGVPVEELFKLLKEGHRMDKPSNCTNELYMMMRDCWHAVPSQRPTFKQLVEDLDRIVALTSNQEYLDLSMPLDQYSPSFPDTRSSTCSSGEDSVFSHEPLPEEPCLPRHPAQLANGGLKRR
PAK4 (human), sequence (O96013 whole entry, looked up): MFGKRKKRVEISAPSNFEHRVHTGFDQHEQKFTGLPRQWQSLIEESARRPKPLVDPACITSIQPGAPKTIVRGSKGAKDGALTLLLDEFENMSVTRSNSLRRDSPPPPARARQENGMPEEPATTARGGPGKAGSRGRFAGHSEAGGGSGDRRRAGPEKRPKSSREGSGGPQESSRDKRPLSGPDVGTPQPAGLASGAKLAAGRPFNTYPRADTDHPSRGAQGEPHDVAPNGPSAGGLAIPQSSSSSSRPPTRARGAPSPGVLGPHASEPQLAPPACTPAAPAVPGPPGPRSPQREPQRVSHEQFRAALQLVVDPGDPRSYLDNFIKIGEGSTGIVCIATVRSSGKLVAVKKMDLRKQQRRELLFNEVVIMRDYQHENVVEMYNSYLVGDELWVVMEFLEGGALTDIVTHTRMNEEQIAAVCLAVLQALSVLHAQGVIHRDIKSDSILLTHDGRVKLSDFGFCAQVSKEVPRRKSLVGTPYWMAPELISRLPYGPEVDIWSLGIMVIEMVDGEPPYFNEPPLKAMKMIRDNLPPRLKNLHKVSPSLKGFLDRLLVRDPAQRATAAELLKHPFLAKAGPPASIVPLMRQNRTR
CDK4 CCND3 (human), sequence (P11802 whole entry, looked up): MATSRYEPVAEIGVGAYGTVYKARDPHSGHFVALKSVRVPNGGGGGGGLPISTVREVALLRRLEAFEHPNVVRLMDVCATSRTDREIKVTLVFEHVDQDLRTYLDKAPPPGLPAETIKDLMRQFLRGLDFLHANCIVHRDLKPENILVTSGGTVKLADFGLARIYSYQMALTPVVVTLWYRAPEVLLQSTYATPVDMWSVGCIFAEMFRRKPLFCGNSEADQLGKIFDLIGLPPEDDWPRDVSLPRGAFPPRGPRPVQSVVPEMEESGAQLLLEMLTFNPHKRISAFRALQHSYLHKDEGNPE
CDK4 CCND3 (human), sequence (P30281 whole entry, looked up): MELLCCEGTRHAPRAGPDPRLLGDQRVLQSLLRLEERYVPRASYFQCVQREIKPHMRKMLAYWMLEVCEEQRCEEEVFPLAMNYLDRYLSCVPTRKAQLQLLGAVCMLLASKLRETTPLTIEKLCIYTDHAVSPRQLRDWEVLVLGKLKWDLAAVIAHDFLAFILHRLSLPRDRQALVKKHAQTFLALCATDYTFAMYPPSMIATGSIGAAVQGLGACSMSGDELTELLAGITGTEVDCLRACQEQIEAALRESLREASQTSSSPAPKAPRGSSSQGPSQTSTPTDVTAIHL
INSRR (human), sequence (P14616 whole entry, looked up): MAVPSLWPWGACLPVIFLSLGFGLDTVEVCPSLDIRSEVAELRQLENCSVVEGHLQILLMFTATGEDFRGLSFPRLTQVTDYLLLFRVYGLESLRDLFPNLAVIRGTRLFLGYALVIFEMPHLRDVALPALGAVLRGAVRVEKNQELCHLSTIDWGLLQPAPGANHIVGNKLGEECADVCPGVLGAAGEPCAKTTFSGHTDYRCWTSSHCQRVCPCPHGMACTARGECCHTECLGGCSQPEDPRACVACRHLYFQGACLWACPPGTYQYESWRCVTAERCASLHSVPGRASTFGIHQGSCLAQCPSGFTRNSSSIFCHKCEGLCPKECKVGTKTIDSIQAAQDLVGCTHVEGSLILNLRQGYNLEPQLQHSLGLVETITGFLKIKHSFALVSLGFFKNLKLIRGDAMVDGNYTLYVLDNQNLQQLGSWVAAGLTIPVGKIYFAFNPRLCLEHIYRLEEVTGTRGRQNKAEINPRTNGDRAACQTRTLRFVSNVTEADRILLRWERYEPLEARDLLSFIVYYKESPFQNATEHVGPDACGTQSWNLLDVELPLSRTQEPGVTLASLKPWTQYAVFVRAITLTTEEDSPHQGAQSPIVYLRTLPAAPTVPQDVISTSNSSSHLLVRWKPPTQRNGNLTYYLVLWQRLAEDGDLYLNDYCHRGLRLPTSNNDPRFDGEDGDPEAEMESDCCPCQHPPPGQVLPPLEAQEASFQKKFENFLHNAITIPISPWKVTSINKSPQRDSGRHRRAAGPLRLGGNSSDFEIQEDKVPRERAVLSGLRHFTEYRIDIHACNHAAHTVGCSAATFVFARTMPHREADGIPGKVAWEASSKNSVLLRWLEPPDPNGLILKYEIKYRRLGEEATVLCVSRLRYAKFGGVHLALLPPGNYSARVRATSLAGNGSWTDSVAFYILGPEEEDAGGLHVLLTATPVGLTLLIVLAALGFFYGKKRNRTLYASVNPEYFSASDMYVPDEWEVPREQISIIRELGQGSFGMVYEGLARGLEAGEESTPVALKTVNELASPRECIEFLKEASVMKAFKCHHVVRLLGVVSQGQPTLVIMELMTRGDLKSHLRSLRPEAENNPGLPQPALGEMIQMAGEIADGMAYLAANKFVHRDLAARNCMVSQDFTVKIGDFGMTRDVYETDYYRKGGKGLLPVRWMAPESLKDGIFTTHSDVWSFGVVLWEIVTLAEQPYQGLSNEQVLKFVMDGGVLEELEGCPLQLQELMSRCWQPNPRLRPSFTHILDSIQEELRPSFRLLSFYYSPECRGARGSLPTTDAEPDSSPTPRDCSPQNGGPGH
RPS6KB2 (human), sequence (Q9UBS0 whole entry, looked up): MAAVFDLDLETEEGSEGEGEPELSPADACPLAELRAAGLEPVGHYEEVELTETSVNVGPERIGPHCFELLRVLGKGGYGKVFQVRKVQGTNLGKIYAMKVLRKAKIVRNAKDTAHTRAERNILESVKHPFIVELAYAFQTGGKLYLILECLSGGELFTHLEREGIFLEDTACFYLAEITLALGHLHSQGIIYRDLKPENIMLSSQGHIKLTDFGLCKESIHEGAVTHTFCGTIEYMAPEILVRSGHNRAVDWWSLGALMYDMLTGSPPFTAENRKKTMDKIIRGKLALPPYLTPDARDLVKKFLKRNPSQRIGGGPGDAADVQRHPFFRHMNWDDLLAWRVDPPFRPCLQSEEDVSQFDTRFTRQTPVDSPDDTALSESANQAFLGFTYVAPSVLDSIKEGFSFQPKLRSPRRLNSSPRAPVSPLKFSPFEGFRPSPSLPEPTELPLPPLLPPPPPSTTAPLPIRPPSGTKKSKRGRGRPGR
MAPK12 (human), sequence (P53778 whole entry, looked up): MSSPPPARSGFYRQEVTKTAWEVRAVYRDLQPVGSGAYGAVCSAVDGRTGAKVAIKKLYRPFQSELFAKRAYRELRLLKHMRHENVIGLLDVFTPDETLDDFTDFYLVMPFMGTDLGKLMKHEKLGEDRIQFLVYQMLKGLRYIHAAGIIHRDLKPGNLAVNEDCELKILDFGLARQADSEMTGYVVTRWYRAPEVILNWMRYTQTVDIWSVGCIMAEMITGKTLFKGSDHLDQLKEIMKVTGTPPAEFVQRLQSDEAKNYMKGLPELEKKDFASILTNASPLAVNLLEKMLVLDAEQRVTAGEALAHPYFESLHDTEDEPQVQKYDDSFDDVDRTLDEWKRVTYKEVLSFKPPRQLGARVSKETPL

Cc1ccc(NC2=CC(=O)c3sc(C)nc3C2=O)cc1
residual activity (AKT2 (human)): 91.3%
residual activity (BLK (human)): 95.4%
residual activity (BMX (human)): 100%
residual activity (CDK4 CCND3 (human)): 93.7%
residual activity (CDK5 CDK5R1 p25 (human)): 61.9%
residual activity (CDK7 CCNH MNAT1 (human)): 95.4%
residual activity (CSNK1D (human)): 101%
residual activity (DCLK2 (human)): 95.3%
residual activity (DDR2 (human)): 95.6%
residual activity (DMPK (human)): 103%
residual activity (EPHA7 (human)): 92.3%
residual activity (EPHA8 (human)): 94.1%
residual activity (FGFR1 (human)): 85.3%
residual activity (FGFR3 (human)): 86%
residual activity (GRK4 (human)): 93.1%
residual activity (GSG2 (human)): 86.6%
residual activity (HCK (human)): 94.4%
residual activity (HIPK2 (human)): 98.5%
residual activity (IKBKE (human)): 102%
residual activity (INSRR (human)): 90%
residual activity (MAPK12 (human)): 99.3%
residual activity (MAPK13 (human)): 105%
residual activity (MARK4 (human)): 102%
residual activity (MST4 (human)): 86.6%
residual activity (NEK7 (human)): 96.9%
residual activity (PAK4 (human)): 105%
residual activity (PKN2 (human)): 115%
residual activity (PLK1 (human)): 86.8%
residual activity (PRKCB1 (human)): 95.7%
residual activity (PRKCZ (human)): 98.2%
residual activity (RPS6KA5 KD2 (human)): 87.7%
residual activity (RPS6KB2 (human)): 95.2%
residual activity (SGK2 (human)): 94.6%
residual activity (SRC (human)): 79.6%
residual activity (STK11 (human)): 85.6%
residual activity (STK17A (human)): 93.7%
residual activity (TAOK1 (human)): 99.8%
residual activity (TGFBR2 (human)): 77.6%
residual activity (WEE1 (human)): 107%
residual activity (WNK2 (human)): 97.7%
residual activity (YES1 (human)): 86.7%
residual activity (ZAP70 (human)): 95.4%

O=C1NC(=O)C(c2cn(CCCn3ccnc3)c3ccccc23)=C1Nc1ccccc1
residual activity (AKT2 (human)): 92.3%
residual activity (BLK (human)): 90.9%
residual activity (BMX (human)): 90%
residual activity (CDK4 CCND3 (human)): 91%
residual activity (CDK5 CDK5R1 p25 (human)): 86%
residual activity (CDK7 CCNH MNAT1 (human)): 96.3%
residual activity (CSNK1D (human)): 102%
residual activity (DCLK2 (human)): 96.3%
residual activity (DDR2 (human)): 95.6%
residual activity (DMPK (human)): 104%
residual activity (EPHA7 (human)): 89.5%
residual activity (EPHA8 (human)): 104%
residual activity (FGFR1 (human)): 78.5%
residual activity (FGFR3 (human)): 100%
residual activity (GRK4 (human)): 91.6%
residual activity (GSG2 (human)): 95.8%
residual activity (HCK (human)): 97.9%
residual activity (HIPK2 (human)): 87.6%
residual activity (IKBKE (human)): 87%
residual activity (INSRR (human)): 101%
residual activity (MAPK12 (human)): 102%
residual activity (MAPK13 (human)): 122%
residual activity (MARK4 (human)): 92.6%
residual activity (MST4 (human)): 22.2%
residual activity (NEK7 (human)): 102%
residual activity (PAK4 (human)): 97.8%
residual activity (PKN2 (human)): 76.9%
residual activity (PLK1 (human)): 99.5%
residual activity (PRKCB1 (human)): 9.78%
residual activity (PRKCZ (human)): 99.6%
residual activity (RPS6KA5 KD2 (human)): 36.9%
residual activity (RPS6KB2 (human)): 86.1%
residual activity (SGK2 (human)): 82.4%
residual activity (SRC (human)): 100%
residual activity (STK11 (human)): 89.9%
residual activity (STK17A (human)): 93.1%
residual activity (TAOK1 (human)): 101%
residual activity (TGFBR2 (human)): 134%
residual activity (WEE1 (human)): 95.8%
residual activity (WNK2 (human)): 99.8%
residual activity (YES1 (human)): 89.3%
residual activity (ZAP70 (human)): 104%
